Where two headings read alike, the source gives them in different places.
Columns and labels:
[1] = system: bloodstream forms of T. brucei 427-221a; set-up: method as in PMID 11582539; details: cited from earlier work
[2] = system: bloodstream forms of T. brucei 427-221a; test: Alamar Blue growth inhibition assay, T. brucei bloodstream forms; format: cell-based, Trypanosoma brucei; details: for IC50 ratio T. brucei/HL-60: IC50 ratio of cytotoxic to trypanocidal activity (selectivity index); for IC50: read-out: IC50 T. brucei
Protocol: (§1) The anti-trypanosomal activities and the general cytotoxicities of chelators were evaluated using the Alamar Blue® assay. For each reagent, the 50% inhibitory concentration (IC50) value, i.e. the concentration of a compound necessary to reduce the growth rate of the cells by 50% of that of controls, was determined.
(§2) Bloodstream forms of T. brucei TC221 was derived from the stock 427 [24] and was obtained from Prof. Peter Overath (Max-Planck Institute für Biologie, Tübingen, Germany). The animal origin of the T. brucei stock 427 cannot be definitely clarified anymore. Bloodstream forms of T. congolense STIB910 was cloned from T. congolense STIB249 which was isolated from a lion in Tansania in 1971 [25]. T. congolense STIB910 was kindly provided by Prof. Reto Brun (Swiss Tropical Institute, Switzerland). Human myeloid leukaemia HL-60 cells were obtained from the Deutsche Sammlung von Mikroorganismen und Zellkulturen GmbH (Braunschweig, Germany).
(§3) Bloodstream forms of T. brucei and T. congolense were grown in Baltz medium (EMEM plus 25 mM HEPES, 2.5 mM glucose, 1 mM Na-pyruvate, 0.05 mM hypoxanthine, 0.001 mM thymidine, 0.04 mM adenosine, 0.025 mM bathocuproindisulfonic acid, pH 7.5, 10 ml/l nonessential amino acids (100×)) supplemented with 16.7% heat-inactivated foetal bovine serum and goat serum, respectively, and 0.2 mM 2-mercaptoethanol. Human myeloid leukaemia HL-60 cells were propagated in RPMI 1640 medium supplemented with 2 mM L-glutamine and 10% heat-inactivated foetal bovine serum. All cultures were maintained in a humidified atmosphere containing 5% CO2 at 37°C (T. brucei and HL-60 cells) or at 34°C (T. congolense).
(§4) Cells were seeded into 96-well tissue culture plates in 200 μl medium containing various concentrations of chelators dissolved in H2O (deferoxamine, 2,3-dihydroxybenzoic acid, ethylenediamine-di-o-hydroxyphenylacetic acid, 5-sulfosalicylic acid, tropolone, 5-methyl-tropolone, 2,2'-bipyridine, 1,10-phenanthroline), 99% ethanol (2,4,6-tris(2pyridyl)-1,3,5-triazine, 4,7-diphenyl-1,10-phenanthroline, 8-hydroxyquinoline, dimethylglyoxime, quercetin), or 100% DMSO (bathocuproine). The controls contained the respective solvent alone. […] To ensure that the cells were in logarithmic growth phase during the entire experiment, they were seeded at an initial density of 1 × 10^4 T. brucei/ml, 4 × 10^5 T. congolense/ml, and 1 × 10^5 HL-60/ml, respectively. After 24 h (trypanosomes) or 43 h (HL-60) incubation, 20 μl of the colorimetric viability indicator Alamar Blue® was added to each well. The cells were incubated for a further 24 h (trypanosomes) or 5 h (HL-60) so that the total incubation time was 48 h. Then, the plates were read on a Dynatech MR5000 ELISA reader (Denkendorf, Germany), using a test wavelength of 550 nm and a reference wave length of 630 nm. Each test was set up in duplicate and repeated three times. The IC50 value was determined by linear interpolation according to the method described in [27].

[3] = system: bloodstream forms of T. congolense STIB910; test: Alamar Blue growth inhibition assay, T. congolense bloodstream forms; format: cell-based, Trypanosoma congolense; details: for IC50 ratio T. congolense/HL-60: IC50 ratio of cytotoxic to trypanocidal activity (selectivity index); for IC50: read-out: IC50 T. congolense
Protocol: as §1, §2, §3, §4

[4] = system: human myeloid leukaemia HL-60 cells; test: Alamar Blue general cytotoxicity assay, HL-60 cells; format: cell-based; details: read-out: IC50 HL-60 cells
Protocol: as §1, §2, §3, §4

[5] = system: bloodstream forms of T. congolense STIB910; set-up: method as in PMID 11582539; details: bloodstream forms of T. congolense STIB910, identical experimental conditions; cited from earlier work
[6] = Trypanosoma brucei, bloodstream forms T. brucei 427-221a, 48 h total incubation, Alamar Blue, 37°C
[7] = Trypanosoma congolense, bloodstream forms T. congolense STIB910, 48 h total incubation, Alamar Blue, 34°C
[8] = human myeloid leukaemia HL-60 cells, 48 h total incubation, Alamar Blue
[9] = bloodstream forms T. brucei 427-221a, 48 h total incubation, Alamar Blue, 37°C
[10] = Trypanosoma congolense, STIB910, 48 h

| SMILES | IC50 ratio T. brucei/HL-60 [2] | IC50 [2, 6] [µM] | IC50 ratio T. congolense/HL-60 [3] | IC50 [3, 7] [µM] | IC50 [4, 8] [µM] | other results |
| --- | --- | --- | --- | --- | --- | --- |
| Cc1ccc(C(=O)Nc2ccc(S(=O)(=O)O)c3cc(S(=O)(=O)O)cc(S(=O)(=O)O)c23)cc1NC(=O)c1cccc(NC(=O)Nc2cccc(C(=O)Nc3cc(C(=O)Nc4ccc(S(=O)(=O)O)c5cc(S(=O)(=O)O)cc(S(=O)(=O)O)c45)ccc3C)c2)c1 [suramin] | – | – | – | – | – | IC50 ([1]; bloodstream forms of T. brucei 427-221a, identical experimental conditions): 0.4 µM; IC50 ratio (selectivity index) ([1]; cytotoxic/trypanocidal activity, drug used for sleeping sickness): 1944 |
| c1cnc2c(c1)ccc1cccnc12 [1,10-Phenanthroline] | 2.6 | 3.3 | 1.6 | 5.3 | 8.5 | – |
| c1ccc(-c2ccnc3c2ccc2c(-c4ccccc4)ccnc23)cc1 [4,7-Diphenyl-1,10-phenanthroline] | – | 2 | – | 4.5 | 48.3 | – |
| Cc1ccc(O)c(=O)cc1 [5-Methyl-tropolone] | 2.0 | – | 1.6 | – | 31.1 | IC50 [2, 9]: 15.7 µM; IC50 ([3]; bloodstream forms T. congolense STIB910, 48 h total incubation, Alamar Blue, 34°C): 20 µM |
| O=C(O)C(NCCNC(C(=O)O)c1ccccc1O)c1ccccc1O (stereo not drawn) [Ethylenediamine-di-o-hydroxyphenylacetic acid] | 2.7 | – | – | – | 325 | IC50 [2, 9]: 120 µM |
| O=c1c(O)c(-c2ccc(O)c(O)c2)oc2cc(O)cc(O)c12 [Quercetin] | >6.1 | 16.3 | >1.6 | 62.6 | > 100 | – |
| CC(=O)N(O)CCCCCNC(=O)CCC(=O)N(O)CCCCCNC(=O)CCC(=O)N(O)CCCCCN [Deferoxamine] | – | – | – | – | – | IC50 ([2]; Trypanosoma brucei, 48 h): 3.3 µM; IC50 [3, 10]: 3.4 µM; IC50 ([4]; Homo sapiens, HL-60, 48 h): 97 µM |
| CC(=O)NCC(=O)O.CC(=O)NCC(=O)O.N=C(N)c1ccc(N=NNc2ccc(C(=N)N)cc2)cc1 [diminazene aceturate] | – | – | – | – | – | IC50 [5]: 0.5 µM |
| c1ccc(-c2ccccn2)nc1 [2,2'-Bipyridine] | – | – | – | – | – | IC50 ([2]; Trypanosoma brucei, 48 h): 46.2 µM; IC50 [3, 10]: 67 µM; IC50 ([4]; Homo sapiens, HL-60, 48 h): 28.3 µM |
| Cc1cc(-c2ccccc2)c2ccc3c(-c4ccccc4)cc(C)nc3c2n1 [Bathocuproine, 2,9-dimethyl-4,7-diphenyl-1,10-phenanthroline] | >3.3 | 3 | – | > 10 | > 10 | – |
| O=c1cccccc1O [Tropolone] | 0.5 | 12.5 | 0.3 | 18.7 | 6.2 | – |
| O=C(O)c1cccc(O)c1O [2,3-Dihydroxybenzoic acid] | – | 220 | – | – | – | – |
| O=C(O)c1cc(S(=O)(=O)O)ccc1O [5-Sulfosalicylic acid] | – | – | – | – | – | IC50 ([2]; Trypanosoma brucei, 48 h): > 1000 µM; IC50 [3, 10]: > 1000 µM; IC50 ([4]; Homo sapiens, HL-60, 48 h): > 1000 µM |
| Oc1cccc2cccnc12 [8-Hydroxyquinoline] | – | – | – | – | – | IC50 ([2]; Trypanosoma brucei, 48 h): 2.1 µM; IC50 [3, 10]: 206 µM; IC50 ([4]; Homo sapiens, HL-60, 48 h): 7.7 µM |
| CC(=NO)C(C)=NO [Dimethylglyoxime] | – | > 100 | – | > 100 | > 100 | – |
| c1ccc(-c2nc(-c3ccccn3)nc(-c3ccccn3)n2)nc1 [2,4,6-Tris(2-pyridyl)-1,3,5-triazine] | 3.2 | 28.6 | 1.2 | 75 | 90.1 | – |

Source: PMC1563472, “In vitro growth inhibition of bloodstream forms of Trypanosoma brucei and Trypanosoma congolense by iron chelators” (Kinetoplastid Biology and Disease, 2006)
